The record followed here is ChEMBL document CHEMBL5036350, “Binding site comparison for coumarin inhibitors and amine/amino acid activators of human carbonic anhydrases” (Eur J Med Chem, 2021).

Common to all, as to details: filed as activator
Experiment [1] deals with Carbonic anhydrase 13 (Homo sapiens) (UniProt Q8N1Q1). The experiment in a line: Activation of human carbonic anhydrase 13 by stopped flow assay.
Experiment [2] deals with Carbonic anhydrase 2 (Homo sapiens) (UniProt P00918). The experiment in a line: Activation of human carbonic anhydrase 2 by stopped flow assay.
Experiment [3] addresses Carbonic anhydrase 14 (Homo sapiens) (UniProt Q9ULX7). The experiment in a line: Activation of human carbonic anhydrase 14 by stopped flow CO2 hydrase assay.
Experiment [4] has as its target Carbonic anhydrase 4 (Homo sapiens) (UniProt P22748). The experiment in a line: Activation of human carbonic anhydrase 4 by stopped flow assay.
For experiment [5], the target named is Carbonic anhydrase 7 (Homo sapiens) (UniProt P43166). The experiment in a line: Activation of human carbonic anhydrase 7 by stopped flow assay.
Sequence of Carbonic anhydrase 7 (Homo sapiens) (P43166 whole entry): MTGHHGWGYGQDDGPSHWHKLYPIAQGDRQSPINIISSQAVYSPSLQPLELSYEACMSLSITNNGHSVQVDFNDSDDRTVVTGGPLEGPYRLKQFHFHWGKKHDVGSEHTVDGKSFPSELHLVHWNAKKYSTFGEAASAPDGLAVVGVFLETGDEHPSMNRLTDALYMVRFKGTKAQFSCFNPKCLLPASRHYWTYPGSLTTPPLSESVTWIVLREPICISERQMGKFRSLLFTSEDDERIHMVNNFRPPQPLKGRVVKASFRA
The target in experiment [6] is Carbonic anhydrase 5A, mitochondrial (Homo sapiens) (UniProt P35218). The experiment in a line: Activation of human carbonic anhydrase 5A by stopped flow assay.
Sequence of Carbonic anhydrase 5A, mitochondrial (Homo sapiens) (P35218 whole entry): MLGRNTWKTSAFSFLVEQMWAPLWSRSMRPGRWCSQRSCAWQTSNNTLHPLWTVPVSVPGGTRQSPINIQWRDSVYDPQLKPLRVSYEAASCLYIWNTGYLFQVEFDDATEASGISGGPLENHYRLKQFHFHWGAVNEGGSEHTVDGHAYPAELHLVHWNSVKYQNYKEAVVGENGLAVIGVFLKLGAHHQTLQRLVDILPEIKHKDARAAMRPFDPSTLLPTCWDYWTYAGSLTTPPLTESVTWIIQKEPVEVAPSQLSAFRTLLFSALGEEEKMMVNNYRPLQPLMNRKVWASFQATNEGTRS

Sequence of Carbonic anhydrase 13 (Homo sapiens) (Q8N1Q1 whole entry, looked up): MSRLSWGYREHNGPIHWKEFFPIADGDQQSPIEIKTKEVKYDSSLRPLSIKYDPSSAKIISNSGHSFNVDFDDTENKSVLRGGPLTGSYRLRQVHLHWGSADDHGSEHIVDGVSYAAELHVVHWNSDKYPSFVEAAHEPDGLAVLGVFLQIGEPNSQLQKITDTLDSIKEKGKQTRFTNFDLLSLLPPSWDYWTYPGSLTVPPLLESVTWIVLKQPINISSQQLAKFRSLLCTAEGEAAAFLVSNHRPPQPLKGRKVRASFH
Sequence of Carbonic anhydrase 4 (Homo sapiens) (P22748 whole entry): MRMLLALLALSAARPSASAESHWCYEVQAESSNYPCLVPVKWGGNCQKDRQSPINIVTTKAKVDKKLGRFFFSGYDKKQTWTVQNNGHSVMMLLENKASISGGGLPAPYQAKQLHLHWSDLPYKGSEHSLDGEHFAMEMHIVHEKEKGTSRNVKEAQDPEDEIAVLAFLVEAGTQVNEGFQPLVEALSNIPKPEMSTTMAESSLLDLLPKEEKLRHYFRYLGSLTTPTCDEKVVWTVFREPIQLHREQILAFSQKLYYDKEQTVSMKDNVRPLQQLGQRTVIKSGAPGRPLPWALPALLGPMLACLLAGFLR
Sequence of Carbonic anhydrase 14 (Homo sapiens) (Q9ULX7 whole entry): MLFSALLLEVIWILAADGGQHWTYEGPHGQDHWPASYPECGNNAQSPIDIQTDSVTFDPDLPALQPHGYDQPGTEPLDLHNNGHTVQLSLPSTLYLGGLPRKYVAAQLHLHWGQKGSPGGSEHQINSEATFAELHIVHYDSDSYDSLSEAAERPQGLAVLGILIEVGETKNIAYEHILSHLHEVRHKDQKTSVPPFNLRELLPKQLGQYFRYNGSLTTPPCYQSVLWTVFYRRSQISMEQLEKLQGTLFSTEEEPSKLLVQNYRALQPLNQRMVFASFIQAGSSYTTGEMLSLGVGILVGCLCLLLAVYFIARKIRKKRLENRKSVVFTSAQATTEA

With `N[C@H](Cc1c[nH]c2ccccc12)C(=O)O`, the KA in experiment [1] amounted to 0.81 µM. Consider `N[C@H](Cc1c[nH]cn1)C(=O)O`, for which the KA in experiment [1] was 0.09 µM.

As to `NCCc1c[nH]cn1`, the KA was found to be 12.5 µM in experiment [2] and 4.6 µM in experiment [1]. In experiment [1], `N[C@@H](Cc1c[nH]cn1)C(=O)O` gave a KA of 0.13 µM. As to `CNC[C@H](O)c1ccc(O)c(O)c1`, the KA in experiment [3] is 36 µM; in experiment [4], 45 µM; in experiment [5], 60 µM; in experiment [6], 63 µM.
